Measured values reported in ChEMBL document CHEMBL1201862, “PubChem BioAssay data set” (2004).
Activity calls are given as the source filed them.

What was measured:
[1] = viability of uninfected HEp-2 cells – cell-based, HTS, cytotoxicity control for RSV inhibitor project, dose response (AID 2410); type: functional; conditions: human respiratory syncytial virus
[2] = viability loss in THP-1 monocytes – THP-1 cells, cytotoxicity control for Vif-APOBEC3G degradation inhibitor project, dose response (AID 1117359); type: functional; conditions: THP-1
[3] = target: T1, DNA repair protein RAD52 homolog (Homo sapiens, UniProt P43351); type: functional, biochemical
T1 sequence (P43351 whole entry): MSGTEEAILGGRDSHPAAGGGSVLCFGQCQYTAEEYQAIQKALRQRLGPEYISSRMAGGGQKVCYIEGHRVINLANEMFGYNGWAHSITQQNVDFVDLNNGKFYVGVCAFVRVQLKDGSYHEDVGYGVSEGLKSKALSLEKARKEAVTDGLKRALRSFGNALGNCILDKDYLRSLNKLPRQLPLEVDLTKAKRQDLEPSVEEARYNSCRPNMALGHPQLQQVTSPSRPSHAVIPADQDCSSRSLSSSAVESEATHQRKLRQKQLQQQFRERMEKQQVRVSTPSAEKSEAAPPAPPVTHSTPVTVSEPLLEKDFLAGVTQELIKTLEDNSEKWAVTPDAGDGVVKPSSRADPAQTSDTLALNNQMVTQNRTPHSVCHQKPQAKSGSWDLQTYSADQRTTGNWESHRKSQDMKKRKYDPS

[4] = reduced cellular PGC1a acetyl-lysine signal – cell-based, cherry-picked samples, dose response (AID 720514); type: functional;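 also: potency may reflect raised or lowered acetylation signal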
Large T antigen = Large T antigen (Simian virus 40, UniProt P03070); type: functional, Betapolyomavirus macacae;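 also: Confirmatory-stage PubChem screen for compounds that inhibit SV40 T antigen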
Sequence of Large T antigen (P03070 whole entry): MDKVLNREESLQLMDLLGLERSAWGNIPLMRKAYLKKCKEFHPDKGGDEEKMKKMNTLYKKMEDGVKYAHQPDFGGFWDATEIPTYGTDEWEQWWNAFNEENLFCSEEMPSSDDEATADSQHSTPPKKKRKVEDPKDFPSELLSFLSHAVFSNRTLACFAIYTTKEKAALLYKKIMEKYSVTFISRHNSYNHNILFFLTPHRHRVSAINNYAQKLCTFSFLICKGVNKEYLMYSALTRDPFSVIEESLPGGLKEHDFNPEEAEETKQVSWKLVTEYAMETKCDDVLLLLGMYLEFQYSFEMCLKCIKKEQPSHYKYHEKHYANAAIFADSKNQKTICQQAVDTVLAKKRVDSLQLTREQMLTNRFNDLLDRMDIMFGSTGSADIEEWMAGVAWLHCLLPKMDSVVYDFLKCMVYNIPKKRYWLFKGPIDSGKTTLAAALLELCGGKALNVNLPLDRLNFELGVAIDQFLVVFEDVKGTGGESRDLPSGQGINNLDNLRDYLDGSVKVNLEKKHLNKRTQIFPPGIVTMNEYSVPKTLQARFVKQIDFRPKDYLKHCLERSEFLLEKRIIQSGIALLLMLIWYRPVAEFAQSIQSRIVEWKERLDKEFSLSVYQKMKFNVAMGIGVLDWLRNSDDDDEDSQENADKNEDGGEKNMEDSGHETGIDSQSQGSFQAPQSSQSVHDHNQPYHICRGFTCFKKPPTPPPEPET

[5] = target: T2, Endoribonuclease toxin MazF (Escherichia coli K-12, UniProt P0AE70); experiment: substrate-only fluorescence increase artefacts – biochemical, single-stranded RNase substrate, counter-screen for MazEF activator project, dose response (AID 588502); type: functional
T2 sequence (P0AE70 whole entry): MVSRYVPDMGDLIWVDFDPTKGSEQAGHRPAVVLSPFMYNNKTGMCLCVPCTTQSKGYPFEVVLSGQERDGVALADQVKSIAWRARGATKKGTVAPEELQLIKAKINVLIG

[6] = target: T2, Endoribonuclease toxin MazF; experiment: activation of MazEF endoribonuclease cleavage – biochemical, fluorescence, single-stranded RNA substrate, uHTS hits, dose response (AID 588481); type: functional
[7] = target: T3, Calpain-2 catalytic subunit (Sus scrofa, UniProt P43367); experiment: m-calpain protease blockers, concentration series – biochemical, fluorogenic peptide substrate, dose response (AID 1420); type: functional
T3 sequence (P43367 whole entry): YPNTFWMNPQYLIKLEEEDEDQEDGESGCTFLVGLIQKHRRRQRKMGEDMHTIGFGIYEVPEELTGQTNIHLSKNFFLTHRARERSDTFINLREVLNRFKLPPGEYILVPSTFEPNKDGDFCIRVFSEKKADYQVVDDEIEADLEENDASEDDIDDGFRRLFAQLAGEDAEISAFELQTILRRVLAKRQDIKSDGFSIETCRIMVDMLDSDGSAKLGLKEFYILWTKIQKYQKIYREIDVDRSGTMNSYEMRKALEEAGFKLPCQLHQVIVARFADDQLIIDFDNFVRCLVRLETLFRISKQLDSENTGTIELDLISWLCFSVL

In the case of `O=S(=O)(/C=C/c1ccccc1)N1CCC(c2nc(O)c3nnn(Cc4ccc(F)cc4)c3n2)CC1`, the CC50 [1] is reported as 19.1 µM (active) and the IC50 (cells) is reported as 12 µM (active).

In the case of `COc1ccc(CCNCc2ccc(OCc3ccccc3)cc2)cc1`, the CC50 [2] is reported as 21.9 µM (active).

With `O=C(c1ccco1)N1CCN(C(=O)C2CCCc3c2[nH]c2ccc(Cl)cc32)CC1` (stereo not given) the CC50 [1] was 16.2 µM (active) and the IC50 (cells) was 16 µM (active).

For `CC(=O)Nc1cccc(NC(=N)Nc2nc(C)cc(C)n2)c1`, the AC50 [3] was 18.8 µM (active).

With `O=C(N[C@@H]1CC[C@@H](CCNS(=O)(=O)c2ccccc2Cl)O[C@@H]1CO)c1ccc(F)cc1` the AC50 [4] was 36.1 µM (active).

With `CCN1C(=O)/C(=C\c2ccc([N+](=O)[O-])s2)C(=O)NC1=S` the CC50 [2] was > 40 µM (active) and the IC50 (Large T antigen) was 91.6 µM (active).

For `O=c1oc(/C=C/c2ccccc2)nc2sc3c(c12)CCC3`, the EC50 [5] was > 99 µM (inactive), the CC50 [1] was 28.4 µM (active) and the IC50 (cells) was 39.6 µM (active). For the same compound, the EC50 [6] was > 99 µM (inactive).

With `CC[C@H](C)[C@H](NC(=O)c1ccc(Cl)cc1)C(=O)OCC(=O)c1ccc2c(c1)NC(=O)CO2` the AC50 [4] was 6.76 µM (active).

With `Cc1ccc2c(CC(=O)Nc3cccc(S(=O)(=O)N4CCOCC4)c3)coc2c1` the IC50 [7] was 25.9 µM (not active).
